From patent US8507464B2, “Phosphoramidate alkylator prodrugs” (Threshold Pharmaceuticals, Inc., priority 2005, dated 2013)
Like-named read-outs stand apart in the source and are kept apart here.

Assays:
[1] = Plasma stability (Table 2B)
[2] = tested on: H460 cell line; experiment: Anti-proliferation assay, hypoxia vs normoxia (Table 1A); conditions: for IC50: Homo sapiens; for HCR P: ratio of IC50 in normoxia and hypoxia
[3] = tested on: NCI-H460 cells; experiment: Antiproliferation assay (Alamar Blue), anoxia vs air; conditions: Homo sapiens, NCI-H460, 2 h
[4] = tested on: HT29 cells; experiment: as above; conditions: Homo sapiens, HT-29, 2 h
[5] = format: physicochemical; conditions: glassy carbon, Ag/AgCl reference; for Reduction Potentials, 100 mV/sec: scan rate 100 mV/sec; for Reduction Potentials, 10,000 mV/sec: scan rate 10,000 mV/sec
[6] = in vivo; conditions: CD-1, mouse, 50 mg/kg
[7] = tested on: mouse (MLM) liver microsomal proteins; format: in vitro ADME; conditions: Table 2B
[8] = in vivo
[9] = tested on: NCI-H460 cells; experiment: Antiproliferation assay - oxygen dependence; format: cell-based, human
Excerpt: . […] The calculated IC50 values (μM) are tabulated in Table Y1 (H460 cells) or Table Y2 (HT29 cells) below.

[10] = tested on: HT29; experiment: Anti-proliferation assay, hypoxia vs normoxia (Table 1B); conditions: for IC50: Homo sapiens
[11] = tested on: H460 cells exposed as monolayers; experiment: Clonogenic survival of monolayer cells (Example 35); conditions: Homo sapiens, NCI-H460, 2 h
[12] = tested on: H460 lung carcinoma spheroids; experiment: Spheroid model, clonogenic survival; conditions: Homo sapiens, NCI-H460, 2 h, read-out: IC90 H460 Spheroid 10% O2
[13] = tested on: MES-SA cells; experiment: Antiproliferation assay (Alamar Blue), anoxia vs air; conditions: Homo sapiens, 2 h
[14] = tested on: HCT116; experiment: Anti-proliferation assay, hypoxia vs normoxia (Table 1B); conditions: for IC50: Homo sapiens
[15] = tested on: HT-29 human colon carcinoma xenograft; experiment: HT-29 human colon carcinoma xenograft mouse model (Example 47); format: in vivo; conditions: Group 8: 5FU 10 mg/kg; vs vehicle
Experimental: Female CB17/SCID mice (purchased from Charles River, Cambridge, Mass.), 7-8 weeks of age, were allowed to acclimatize for at least three days, and handled under pathogen-free conditions. Human colon carcinoma cell line HT-29 was obtained from the American Type Culture Collection. The cell lines were cultured in RPMI 1640 media supplemented with 10% fetal bovine serum. Cells were maintained in a 37° C. incubator with 5% CO2. The HT-29 cells were harvested from culture and inoculated at 3×10^6 cells/animal in the peritoneal subcutaneous space. When the tumors grew to an average volume of 100 mm^3 (day 8), each group of 10 mice was administered, for three weeks, vehicle alone (saline and PEG (10 mL/kg each), Group 1), Compound 36 alone (dissolved in 30% cyclodextrin in PBS) at a daily dose of 20, 60, or 200 mg/kg (Groups 2, 3 and 4, respectively), and Compound 36 at a daily dose of 20, 60, and 200 mg/kg given 2-3 hours after a dose of 10 mg/kg of 5FU (in saline) (Group 5, 6 and 7, respectively) and compared to a group receiving only 5FU at 10 mg/kg (Group 8) as tabulated below.
The body weight of each mouse was recorded twice per week. Growth of each xenograft was monitored by externally measuring tumors in two dimensions using a digital caliper twice per week. Tumor volume (V) was determined by the following equation: V=(L×W^2)/2, where L is the length and W is the width of a xenograft. Tumor volumes were measured twice weekly.

[16] = NCI-H460, read-out: Hypoxia P (proliferation IC50)
[17] = NCI-H460, read-out: Normoxia P (proliferation IC50)
[18] = read-out: IC50 H460 Air, air, 2 h exposure
[19] = read-out: IC50 H460 Anoxia, anoxia, 2 h exposure
[20] = CD-1, Balb/c for Compound 1, mouse, iv
[21] = HT-29, read-out: HT29 P H (proliferation IC50, hypoxia)
[22] = HT-29, read-out: HT29 P N (proliferation IC50, normoxic)

With `CN(CCCl)P(=O)(OCc1cnc([N+](=O)[O-])n1C)N(C)CCCl` [Compound 5] the “Plasma stability (% at 30 min)” value ([1]; 30 min) was 100%, the “Plasma stability, value in parentheses” value ([1]; parentheses not explained) was “(85) %” and the IC50 [2, 16] was 4.5 µM. For the same compound, the IC50 [2, 17] was 3.5 µM, the “HCR P” value [2] was 1 and the IC50 [3, 18] was 6 µM. The IC50 [3, 19] was 0.05 µM, the IC50 ([4]; read-out: IC50 HT29 Air) was > 100 µM and the IC50 ([4]; read-out: IC50 HT29 Anoxia) was 10 µM. The “Reduction Potentials, 100 mV/sec” value [5] was −606 mV, the “Reduction Potentials, 10,000 mV/sec” value [5] was −634 mV and the AUC ([6]; ip) was 57.4 µg·h/mL. For the same compound, the Cmax ([6]; ip) was 3 µg/mL, the Tmax ([6]; ip) was 5 min and the half-life ([6]; ip) was 2.56 min. The AUC ([6]; iv) was 270 µg·h/mL, the Cmax ([6]; iv) was 16.9 µg/mL and the Tmax ([6]; iv) was 5 min. The half-life ([6]; iv) was 4.67 min, the “Metabolic stability (MLM) (% at 30 min)” value [7] was 5% and the “Metabolic stability (MLM), value in parentheses” value ([7]; parentheses not explained) was “(20) %”. The clearance ([8]; CD-1 (Compounds 5, 23, 36), Balb/c (Compound 1), mouse, iv) was 11.1 L/h/kg, the Cmax ([8]; CD-1, Balb/c for Compound 1, mouse, ip) was 3 µg/mL and the AUC [8, 20] was 4.5 µg·h/mL. For the same compound, the Cmax [8, 20] was 16.9 µg/mL, the Vd [8, 20] was 1.25 L/kg and the half-life ([8]; CD-1, Balb/c for Compound 1, mouse, iv, t ½, intravenous administration in mice, mice) was 4.8 min. It also gave an AUC ([8]; CD-1, mouse, ip) of 1 µg·h/mL, an IC50 ([9]; Homo sapiens, NCI-H460, read-out: IC50 in H460 cells, 0.1% O2) of 1 µM and an IC50 ([9]; Homo sapiens, NCI-H460, read-out: IC50 in H460 cells, 0.6% O2) of 1 µM. It also gave an IC50 ([9]; Homo sapiens, NCI-H460, read-out: IC50 in H460 cells, 1% O2) of 10 µM, an IC50 ([9]; Homo sapiens, NCI-H460, read-out: IC50 in H460 cells, 10% O2) of 5 µM and an IC50 ([9]; Homo sapiens, NCI-H460; read-out: IC50 in H460 cells, Air) of 40 µM. The IC50 ([9]; Homo sapiens, NCI-H460; read-out: IC50 in H460 cells, N2) was 0.03 µM, the “HT29 HCR P” value [10] was >10 and the IC50 [10, 21] was 10 µM. For the same compound, the IC50 [10, 22] was > 100 µM.
For `Nc1n[n+]([O-])c2ccccc2[n+]1[O-]` [Tirapazamine, reference compound], the IC90 ([11]; read-out: IC90 H460 Monolayer 0.6% O2) was 27 µM, the IC90 ([11]; read-out: IC90 H460 Monolayer Air) was > 100 µM and the IC90 ([11]; read-out: IC90 H460 Monolayer N2) was 14 µM. The IC90 [12] was > 200 µM.
With `O=[N+]([O-])c1ccc(COP(=O)(NCCBr)NCCBr)s1` [Compound 34] the IC50 ([13]; read-out: IC50 MES-SA Air) was 10 µM, the IC50 ([13]; read-out: IC50 MES-SA Anoxia) was 0.13 µM and the “Plasma stability (at 20 min)” value ([1]; at 20 min) was 85%. For the same compound, the IC50 [2, 16] was < 0.01 µM, the IC50 [2, 17] was 1.8 µM and the “HCR P” value [2] was >180. For the same compound, the IC50 [3, 18] was 1.8 µM, the IC50 [3, 19] was 0.01 µM and the IC50 ([4]; read-out: IC50 HT29 Air) was 57 µM. The IC50 ([4]; read-out: IC50 HT29 Anoxia) was 0.8 µM, the “Reduction Potentials, 100 mV/sec” value [5] was −584 mV and the “Reduction Potentials, 10,000 mV/sec” value [5] was −663 mV. The “Metabolic stability (MLM) (% at 30 min)” value [7] was 28%, the “HCT116 HCR” value [14] was 77 and the IC50 ([14]; HCT-116, read-out: HCT116 P H (proliferation IC50, hypoxia)) was 0.13 µM. It also gave an IC50 ([14]; HCT-116, read-out: HCT116 P N (proliferation IC50, normoxic)) of 10 µM, an IC50 ([9]; Homo sapiens, NCI-H460, read-out: IC50 in H460 cells, 0.3% O2) of 1 µM and an IC50 ([9]; Homo sapiens, NCI-H460, read-out: IC50 in H460 cells, Air) of 5 µM. The IC50 ([9]; Homo sapiens, NCI-H460, read-out: IC50 in H460 cells, N2) was 0.01 µM, the “HT29 HCR P” value [10] was 70 and the IC50 [10, 21] was 0.8 µM. For the same compound, the IC50 [10, 22] was 57 µM.
For `O=c1[nH]cc(F)c(=O)[nH]1` [Compound 5FU, 5-fluoro-2,4(1H,3H)-pyrimidinedione, reference compound], the “% Inhibition vs Group 1” value [15] was 38.7%.
